In patent US12152016B2, “Aryl hydrocarbon receptor modulators and uses thereof” (Beth Israel Deaconess Medical Center, Inc., priority 2018, dated 2024):
“Also recorded” adds a separate entry of the source.

Assays:
AhR [1] = target: T1, AhR (Mus musculus, UniProt P30561); experiment: AhR nuclear translocation assay, mouse Hepa-1c1c7; assay type: cell-based; conditions: mouse Hepa-1c1c7, 10 μM, 90 minutes
T1 construct: endogenous in cells; host or cells: Hepa-1c1c7 (mouse hepatoma cell line)
Experimental: (§1) Mouse Hepa-1c1c7 or human HepG2 cells were seeded in 8 well chamber slides followed by 24 hours incubation in tryptophan deficient media (HBSS with Ca^2+ and Mg^2+, 10% heat inactivated FBS, 1× non-essential amino acids, 1× sodium pyruvate, 4.5 g/L glucose). Cells were treated with vehicle control (DMSO) or 10 μM ITE, compound 108, or compound 109 for 90 minutes in tryptophan deficient media. Following treatment, cells were fixed in 4% formaldehyde and processed according to standard immunofluorescence staining protocol. Primary anti-AhR antibody was applied at 1:100 dilution (Enzo, BML-SA210) and Alexa488 conjugated secondary antibody was applied at 1:500 dilution (Cell Signaling, 4412S). Actin was stained using Alexa 568 conjugated Phalloidin (Fisher). Samples were mounted in anti-fade mounting medium supplemented with DAPI for nuclear staining and imaged with confocal microscopy (Leica SP5×MP, 63× oil lens).

AhR [2] = target: T2, AhR (Homo sapiens, UniProt P35869); experiment: AhR nuclear translocation assay, human HepG2; assay type: cell-based; conditions: human HepG2, 10 μM, 90 minutes
T2 construct: endogenous in cells; host or cells: HepG2 (human liver cancer cell line)
T2 sequence (P35869 11-848): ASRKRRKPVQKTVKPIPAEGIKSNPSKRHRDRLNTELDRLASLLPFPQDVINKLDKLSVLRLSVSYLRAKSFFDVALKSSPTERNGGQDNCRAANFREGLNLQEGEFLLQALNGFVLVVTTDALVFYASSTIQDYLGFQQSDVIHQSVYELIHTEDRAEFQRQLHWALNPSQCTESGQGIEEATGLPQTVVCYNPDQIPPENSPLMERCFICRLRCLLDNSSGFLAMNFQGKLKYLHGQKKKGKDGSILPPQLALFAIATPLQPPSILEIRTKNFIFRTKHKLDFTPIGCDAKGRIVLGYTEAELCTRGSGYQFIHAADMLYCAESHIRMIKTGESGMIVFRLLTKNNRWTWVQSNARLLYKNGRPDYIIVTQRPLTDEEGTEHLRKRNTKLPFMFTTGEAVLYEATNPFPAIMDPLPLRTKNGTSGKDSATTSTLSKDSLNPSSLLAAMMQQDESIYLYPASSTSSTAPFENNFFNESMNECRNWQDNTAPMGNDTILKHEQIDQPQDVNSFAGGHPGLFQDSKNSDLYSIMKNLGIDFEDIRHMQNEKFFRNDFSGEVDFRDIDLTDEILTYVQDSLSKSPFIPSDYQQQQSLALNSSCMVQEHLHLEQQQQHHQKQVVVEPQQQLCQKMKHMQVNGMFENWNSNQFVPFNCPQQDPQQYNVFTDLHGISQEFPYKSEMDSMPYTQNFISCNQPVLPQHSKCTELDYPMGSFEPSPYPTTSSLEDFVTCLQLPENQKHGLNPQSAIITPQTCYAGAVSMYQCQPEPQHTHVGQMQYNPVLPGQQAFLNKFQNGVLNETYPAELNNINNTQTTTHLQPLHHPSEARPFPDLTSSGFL
Experimental: as §1

[3] = target: T3, aryl hydrocarbon receptor (AHR) (Homo sapiens, UniProt P35869); experiment: XRE-driven luciferase reporter assay, human HepG2
T3 sequence (P35869 11-848): T2 sequence (P35869 11-848)

T1 sequence (P30561 10-805 limits assumed): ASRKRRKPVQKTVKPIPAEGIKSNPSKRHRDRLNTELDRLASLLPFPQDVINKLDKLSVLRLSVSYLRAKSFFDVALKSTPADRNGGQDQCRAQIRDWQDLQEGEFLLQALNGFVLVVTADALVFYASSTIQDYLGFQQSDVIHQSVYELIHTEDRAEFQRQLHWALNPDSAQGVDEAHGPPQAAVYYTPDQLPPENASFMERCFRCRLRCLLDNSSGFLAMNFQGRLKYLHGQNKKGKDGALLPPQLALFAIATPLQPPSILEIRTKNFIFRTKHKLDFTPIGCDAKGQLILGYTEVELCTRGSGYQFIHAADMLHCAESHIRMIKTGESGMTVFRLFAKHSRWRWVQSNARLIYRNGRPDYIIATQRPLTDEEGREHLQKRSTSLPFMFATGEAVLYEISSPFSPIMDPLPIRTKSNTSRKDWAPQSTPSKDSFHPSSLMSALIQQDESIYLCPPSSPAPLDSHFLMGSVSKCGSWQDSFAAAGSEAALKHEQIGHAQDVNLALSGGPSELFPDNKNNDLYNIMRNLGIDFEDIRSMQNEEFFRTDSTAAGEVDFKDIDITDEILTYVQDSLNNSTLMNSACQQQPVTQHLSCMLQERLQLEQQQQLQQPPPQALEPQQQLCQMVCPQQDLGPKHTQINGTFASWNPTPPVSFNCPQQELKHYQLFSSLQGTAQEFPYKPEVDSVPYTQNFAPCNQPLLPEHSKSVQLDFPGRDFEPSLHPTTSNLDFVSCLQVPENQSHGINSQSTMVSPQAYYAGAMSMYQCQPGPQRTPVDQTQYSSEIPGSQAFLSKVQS
T1 sequence (P53762 whole entry partner): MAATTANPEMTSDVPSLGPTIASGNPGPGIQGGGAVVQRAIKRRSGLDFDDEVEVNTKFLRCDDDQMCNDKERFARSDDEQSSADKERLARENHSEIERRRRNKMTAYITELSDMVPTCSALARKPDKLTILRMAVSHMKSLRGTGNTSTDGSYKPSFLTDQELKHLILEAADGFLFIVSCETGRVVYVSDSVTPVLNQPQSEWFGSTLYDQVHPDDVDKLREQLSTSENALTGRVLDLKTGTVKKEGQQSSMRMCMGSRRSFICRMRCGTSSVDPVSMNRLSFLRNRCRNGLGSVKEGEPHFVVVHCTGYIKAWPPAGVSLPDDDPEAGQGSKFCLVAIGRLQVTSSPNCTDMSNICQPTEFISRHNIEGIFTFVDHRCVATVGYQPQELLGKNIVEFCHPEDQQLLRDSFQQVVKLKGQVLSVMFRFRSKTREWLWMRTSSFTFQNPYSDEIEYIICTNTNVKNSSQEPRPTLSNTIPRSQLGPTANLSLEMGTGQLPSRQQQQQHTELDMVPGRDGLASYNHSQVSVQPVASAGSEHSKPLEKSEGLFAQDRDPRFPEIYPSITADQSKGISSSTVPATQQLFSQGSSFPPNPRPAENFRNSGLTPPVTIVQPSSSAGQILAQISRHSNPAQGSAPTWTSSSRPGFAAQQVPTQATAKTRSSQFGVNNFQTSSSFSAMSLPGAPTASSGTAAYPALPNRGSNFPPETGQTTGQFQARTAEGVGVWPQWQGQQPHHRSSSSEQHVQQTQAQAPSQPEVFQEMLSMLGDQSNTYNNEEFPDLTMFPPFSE

N#Cc1cccc(C(=O)c2c[nH]c3ccccc23)n1 [Compound 108, 6-(1H-indole-3-carbonyl)pyridine-2-carbonitrile]
AhR nuclear translocation (AhR [1]): localized in the nucleus; also recorded: rapid nuclear enrichment of AhR
AhR nuclear translocation (AhR [2]): localized in the nucleus; also recorded: rapid nuclear enrichment of AhR
XRE luciferase Emax (fold) ([3]; Human HepG2, fold over vehicle): 74 fold
EC50 ([3]; XRE luciferase EC50, Human HepG2, least square curve fitting, >10,000 = does not reach 50% of Emax of ITE at 10 μM (highest concentration tested)): 2.8 nM
